# Source: PubChem BioAssay (NCI)
#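 Following 48 hours of exposure in 96-well plates, responses at five concentrations were used to interpolate endpoints linearly. Here, GI50 denotes the concentration required for 50% inhibition of growth. At the TGI there is no net growth.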
# Columns and labels:
# Assay in all cases: NCI anticancer screen, dose series, 48 h
# [1] = test system: OVCAR-5 ovarian
# [2] = test system: SR leukemia
# [3] = test system: EKVX NSCLC
# [4] = test system: SW-620 colon
# [5] = test system: SF-295 CNS
# [6] = test system: SK-MEL-2 melanoma
# [7] = test system: NCI-H226 lung
# [8] = test system: CAKI-1 renal
# [9] = test system: OVCAR-3 ovarian
# [10] = test system: UACC-257 melanoma
SMILES,GI50 [1] [µM],TGI [1] [µM],GI50 [2] [µM],TGI [2] [µM],GI50 [3] [µM],TGI [3] [µM],GI50 [4] [µM],TGI [4] [µM],GI50 [5] [µM],TGI [5] [µM],GI50 [6] [µM],TGI [6] [µM],GI50 [7] [µM],TGI [7] [µM],GI50 [8] [µM],TGI [8] [µM],GI50 [9] [µM],TGI [9] [µM],GI50 [10] [µM],TGI [10] [µM]
N#C[S-].[La+3].c1ccc(-c2ccccn2)nc1.c1ccc(-c2ccccn2)nc1.c1ccc(-c2ccccn2)nc1,15,55.1,34.2,> 100,22,> 100,33.6,> 100,12.3,71.3,21.5,53.6,19.5,67.9,12.9,60.8,64.6,> 100,24.3,65.2
O=c1cc(-c2cccc(OC(F)(F)F)c2)[nH]c2ccc(N3CCCC3)cc12,–,> 100,–,< 0.0001,0.0493,> 100,–,> 100,–,0.00048,–,0.000848,–,0.000657,–,> 100,–,0.000234,–,> 100
Clc1cc(N/N=C(\c2ccccc2)c2ccccn2)ncn1,–,> 100,–,3.08,–,> 100,–,> 100,–,> 100,–,> 100,–,67.3,–,0.235,–,> 100,–,4.65
